Assays:
[1] = system: monolayer of Caco-2 cells; assay: Permeability of solid dispersion aqueous solution on the Caco-2 cell line; settings: Caco-2 monolayer, 3 μM (per pure IVM) in HBSS on top, compound of Formula I = Example 1 No 2
[2] = API concentration in the blood plasma of cattle after oral administration; type: in vivo; settings: 600 μg/kg (per pure IVM)
Description: Free ivermectin substance was processed in planetary mill, the parameters were as follows: weight of the material—5 g, grinding jar volume—200 mL, grinding media—steel balls (diameter 8 mm, 90.0 g load), processing time—20 minutes. Compound of Formula I was treated according to Example 1 No21.
Cattle were divided into 2 groups of 1 animals each. Free Ivermectin (IVM) and compound of Formula I were orally administered to starving cattle. Blood samples were withdrawn from the jugular vein at appropriate time intervals after administration (0, 4, 20 h).
Ivermectin concentrations in blood plasma were analyzed according to the method Na-Bangchang, K., High-performance liquid chromatographic method for the determination of ivermectin in plasma, Southeast Asian J Trop Med Public Health, 2006 September, 37(5):848-58, PMID: 17333725.
The internal standard (moxidectin) was separated from ivermectin on a Hypersil Gold C18 column(150×4.6 mm, […]), with retention time of 3.7 and 7.0 minutes, respectively. Fluorescence detection was set at an excitation and emission wavelength of 365 and 475 nm, respectively. The mobile phase consisted of acetonitrile, methanol and distilled water (50:45:5,v/v/v), running through the column at a flow rate of 1.5 ml/minute. The chromatographic analysis was operated at 25° C. Sample preparation (100 μl plasma) was done by a single step protein precipitation with acetonitrile, followed by derivatization with 100 μl of N-methylimidazolesolution in acetonitrile (1:1, v/v) and 150 μl of trifluoroacetic anhydrous solution in acetonitrile(1:2, v/v). Calibration curve over the concentration range of 20-8,000 ng/ml plasma was linear with correlation coefficient better than 0.995.
All the blood samples were centrifuged at 3000 rpm for 15 min to obtain […]. Cattle plasma samples (100 μL each) were placed in 1.5 mL Eppendorf tubes, and then the samples underwent protein precipitation. The samples were vortexed for 1 min and centrifuged at 13,400 rpm for 10 min 20 μL of the supernatant was injected into the HPLC.

[3] = system: SARS-CoV-2; settings: reference level compared with the lung Cmax; read-out: EC 50 for SARS-CoV-2; cited from earlier work

SMILES: CC[C@H](C)[C@H]1O[C@]2(CC[C@@H]1C)C[C@@H]1C[C@@H](C/C=C(\C)[C@@H](O[C@H]3C[C@H](OC)[C@@H](O[C@H]4C[C@H](OC)[C@@H](O)[C@H](C)O4)[C@H](C)O3)[C@@H](C)/C=C/C=C3\CO[C@@H]4[C@H](O)C(C)=C[C@@H](C(=O)O1)[C@]34O)O2 [IVM, Ivermectin]
- Concentrartion of IVM at the bottom of the well ([1]; 20 min): 50 ng/mL
- Concentrartion of IVM at the bottom of the well ([1]; 40 min): 90 ng/mL
- Concentrartion of IVM at the bottom of the well ([1]; 60 min): 150 ng/mL
- Concentrartion of IVM at the bottom of the well ([1]; 80 min): 190 ng/mL
- Concentrartion of IVM at the bottom of the well ([1]; 100 min): 210 ng/mL
- Concentrartion of IVM at the bottom of the well ([1]; 120 min): 250 ng/mL
- Cmax [2]: 350 ± 50 nM
- C1, 0 h, ivermectin concentration in plasma ([2]; 0 h, compound of Formula I treated according to Example 1 No21): 0 ± 0.15 ng/mL
- C2, 4 h, ivermectin concentration in plasma ([2]; 4 h, compound of Formula I treated according to Example 1 No21): 307.3 ± 46.1 ng/mL
- C3, 20 h, ivermectin concentration in plasma ([2]; 20 h, compound of Formula I treated according to Example 1 No21): 104.4 ± 15.6 ng/mL
- Cmax in lung calculated by plasma-lung ratio 2.67 ([2]; calculated from plasma Cmax): 930 ± 140 nM
- EC50 [3]: 2400 nM
